# Assay results reported in PMC11085308, “Design, Synthesis and Biological Activity of Novel Methoxy- and Hydroxy-Substituted N-Benzimidazole-Derived Carboxamides” (Molecules, 2024).
# Entries after “also recorded” stand apart in the source; their conditions may differ.
# What was measured:
# [1] = ABTS radical scavenging assay; conditions: for IC50: head prints 'mM (* µM)', no cell carries an asterisk
# Text: (§1) The synthesized benzazole acrylonitrile derivatives were screened for their antioxidative potency by using in vitro assays, namely DPPH and ABTS as free radical scavenging assays and FRAP as a ferric reducing/antioxidant power assay.
# (§2) The well-known antioxidant butylated hydroxytoluene (BHT) was used as a standard for comparing activity during testing. The DPPH assay is a standard commonly used test for the in vitro assessment of the antioxidant capacity of novel compounds by using their ability to scavenge the stable radical 1,1-diphenyl-picrylhydrazyl. […] Another test used to evaluate the antioxidative capacity of novel compounds was the ABTS test, by which their activity was evaluated by scavenging the stable radical 3-ethylbenzthiazoline-6-sulphonic acid.
# The total antioxidant activity (TEAC) method was adapted for use with a microplate reader. […] On the day of analysis, the ABTS•+ solution was diluted with PBS (pH7.4) to attain an absorbance of 0.700 ± 0.01 at 734 nm. This radical state remained stable for over two days when stored in the dark at room temperature. The standards and solutions of the tested compounds (10 µL) were mixed with the working ABTS•+ solution (200 µL) in microplate wells and incubated at room temperature for 5 min. The reduction in absorbance at 734 nm was measured using a µQuant (Biotec Inc., Auburn, CA, USA) microplate reader. The percentage scavenging of the test samples at each concentration was calculated using the following formula:[(Abscontrol − Abscompound)/Abscontrol] × 100
# The IC50 values for each compound were calculated from dose–response curves. All measurements where carried out in triplicate with a linear regression analysis.
# H460 (lung carcinoma) = assay: Antiproliferative activity in vitro, MTT assay, 72 h; assay type: cell-based; conditions: Homo sapiens, NCI-H460, 72 h incubation
# Protocol: (§3) The experiments were carried out on four human cell lines which are derived from three cancer types: H460 (lung carcinoma), HCT 116 (colorectal carcinoma), MCF-7 (human breast cancer) and the non-cancerous cell line HEK 293 (human embryonic kidney).
# (§4) The results are compared with the known antiproliferative agents doxorubicin and etoposide. […] Therefore, it is not clear whether the observed antiproliferative activity is due to the biological activity of the compounds or to precipitation.
# (§5) The experiments were performed on four human cell lines, including HCT 116 (colon carcinoma), H 460 (lung carcinoma), MCF-7 (breast carcinoma) and HEK 293 (human embryonic kidney cells), in line with previously published experimental procedures. Briefly, the cells were grown in DMEM medium with the addition of 10% fetal bovine serum (FBS), 2 mM of L-glutamine, 100 U/mL of penicillin and 100 µg/mL of streptomycin and cultured as monolayers at 37 °C in a humidified atmosphere with 5% CO2. Cells were seeded at 2 × 10^3 cells/well in standard 96-well microtiter plates and left to attach for 24 h. The next day, a test compound was added in five serial 10-fold dilutions. The rate of cell growth was evaluated after 72 h of incubation with MTT assays. […] Each test was performed in quadruplicate in at least two individual experiments.
# [2] = test system: HCT 116 (colorectal carcinoma); assay: as above; assay type: cell-based; conditions: Homo sapiens, 72 h incubation, '-' with footnote a = did not show biological activity due to precipitation
# Protocol: as §3, §4, §5
# [3] = test system: MCF-7 (human breast cancer); assay: as above; assay type: cell-based; conditions: MCF7, 72 h incubation
# Protocol: as §3, §4, §5
# [4] = test system: HEK 293 (human embryonic kidney); assay: Antiproliferative activity in vitro, MTT assay, 72 h, non-cancerous cell line; assay type: cell-based; conditions: HEK293, 72 h incubation, '-' with footnote a = did not show biological activity due to precipitation
# Protocol: as §3, §4, §5
# [5] = Ferric reducing/antioxidant power (FRAP assay); design: FRAP: unit not given here; conditions: for FRAP: Fe2+ equivalents, triplicate; for FRAP ferric reducing/antioxidant power, in words: compared to the standard BHT
# Protocol: as §1
# The antioxidant activity of a substance is directly related to its reducing power.
# The FRAP method was carried out according to previously described procedures with some modifications to make it compatible with an assay on a 96-well microplate. All results were expressed as Fe^2+ equivalents (Fe^2+ µmol). Ferrous sulphate (FeSO4 × 7H2O) was used to develop a standard curve of 20–2000 µmol/l for the FRAP test.
# S. aureus ATCC 29213 = assay: Antibacterial activity in vitro, broth microdilution MIC; assay type: cell-based, Staphylococcus aureus; conditions: for MIC S. aureus ATCC 29213: broth microdilution, 16–24 h at 37 °C, unit inferred
# Protocol: (§6) The in vitro antibacterial activity of the synthesized benzamides 7–12 and 31–37 was evaluated against a panel of eight different bacterial strains. The Gram-positive bacterial strains comprised S. aureus, S. pneumoniae and E. faecalis, and the panel of Gram-negative bacteria consisted of E. coli, K. pneumoniae, A. baumannii and P. aeruginosa.
# (§7) The selected bacterial strains were Gram-negative Escherichia coli (ATCC 25922) and Gram-positive Staphylococcus aureus (ATCC 29213) and S. Pneumoniae (ATCC 49619). The Saccharomyces cerevisiae ATCC 7752 strain was tested as a eukaryotic model organism. Synthesized compounds were prepared as 10 mM DMSO solutions and tested in a final concentration range of 100–0.2 µM [39].
# (§8) Broth microdilution testing was performed according to CLSI (Clinical Laboratory Standards Institute) guidelines. The MIC (minimal inhibitory concentration) value was defined as the last tested concentration of a compound at which there is no visible growth of bacteria. Inoculums for each microorganism were prepared using the direct colony suspension method, where broth solutions that achieved turbidity equivalent to 0.5 McFarland standards were additionally diluted 100× with cation-adjusted MH media (Becton Dickinson). All test plates were incubated for 16–24 h at 37 °C.
# A. baumannii ATCC 17978 = assay: as above; assay type: cell-based; conditions: 16–24 h at 37 °C, unit inferred
# Protocol: as §6, §7, §8
# E. faecalis ATCC 29212 = assay: as above; assay type: cell-based; conditions: for Selectivity of antibacterial activity, in words: against the Gram-positive strain E. faecalis; for MIC E. faecalis ATCC 29212: broth microdilution, 16–24 h at 37 °C, unit inferred
# Protocol: as §6, §7, §8
# P. aeruginosa ATCC 27853 = assay: as above; assay type: cell-based; conditions: 16–24 h at 37 °C, unit inferred
# Protocol: as §6, §7, §8
# E. coli ATCC 25922 = assay: as above; assay type: cell-based, Escherichia coli; conditions: 16–24 h at 37 °C, unit inferred
# Protocol: as §6, §7, §8
# E. coli efflux del. = assay: microbe, parasite or virus in culture; assay type: cell-based, Escherichia coli; conditions: for MIC E. coli efflux del.: broth microdilution, 16–24 h at 37 °C, unit inferred
# Protocol: as §6, §7, §8
# [6] = DPPH free radical scavenging assay; conditions: compared to the standard BHT
# Text: as §1, §2
# Determination of the reducing activity of the stable radical 1,1-diphenyl-picrylhydrazyl (DPPH):
# The reducing activity of the investigated systems was measured by the DPPH method according to previously described procedures with modifications to ensure their use on a 96-well microplate. Briefly, equal volumes of various concentrations of the tested molecules (dissolved in DMSO) were added to a solution of DPPH (final concentration of 50 µM in absolute ethanol). Ethanol and DMSO were used as control solutions in line with earlier reports. The radical scavenging activity was calculated using the following formula:[(A517 control − A517 compound)/A517 control] × 100.
# The IC50 values were calculated from dose–response curves using nonlinear regression analysis with the GraphPad Prism 8 Ink. program. All measurements were carried out in triplicate.
smiles,measurement,setting,value
"Cc1cc(C(C)(C)C)c(O)c(C(C)(C)C)c1 [BHT, butylated hydroxytoluene, reference compound]",IC50,[1],0.02312 ± 0.00012 mM
"O=C(Nc1nc2ccccc2[nH]1)c1ccc(O)cc1O [Compound 31, N-(1H-benzo[d]imidazol-2-yl)-2,4-dihydroxybenzamide]",IC50,H460 (lung carcinoma),> 100 µM
same,IC50,[2],38.6 ± 15.6 µM
same,IC50,[3],35.1 ± 6.9 µM
same,IC50,[4],24.5 ± 6.4 µM
same,FRAP,[5],89.29 ± 21.92
same,IC50,[1],0.13 ± 0.006 mM
same,MIC S. aureus ATCC 29213,S. aureus ATCC 29213,> 64 µM
same,MIC A. baumannii ATCC 17978,A. baumannii ATCC 17978,> 64 µM
same,"Selectivity of antibacterial activity, in words",E. faecalis ATCC 29212,selective antibacterial activity
same,MIC E. faecalis ATCC 29212,E. faecalis ATCC 29212,32 µM
same,MIC P. aeruginosa ATCC 27853,P. aeruginosa ATCC 27853,> 64 µM
same,MIC E. coli ATCC 25922,E. coli ATCC 25922,> 64 µM
same,MIC E. coli efflux del.,E. coli efflux del.,64 µM
same,melting point,,212 to 214 °C
"O=C(Nc1nc2ccccc2n1-c1ccccc1)c1cc(O)c(O)c(O)c1 [Compound 34, 3,4,5-Trihydroxy-N-(1-phenyl-1H-benzo[d]imidazol-2-yl)benzamide]",IC50,H460 (lung carcinoma),> 100 µM
same,IC50,[2],> 100 µM
same,IC50,[3],49.4 ± 27.3 µM
same,IC50,[4],85.1 ± 8.8 µM
same,FRAP,[5],6.83 ± 1.26
same,"FRAP ferric reducing/antioxidant power, in words",[5],very low
same,"DPPH free radical scavenging activity, in words",[6],significantly improved; also recorded: exceptional activity
same,MIC S. aureus ATCC 29213,S. aureus ATCC 29213,> 64 µM
same,MIC A. baumannii ATCC 17978,A. baumannii ATCC 17978,> 64 µM
same,"Selectivity of antibacterial activity, in words",E. faecalis ATCC 29212,selective antibacterial activity
same,MIC E. faecalis ATCC 29212,E. faecalis ATCC 29212,32 µM
same,MIC P. aeruginosa ATCC 27853,P. aeruginosa ATCC 27853,> 64 µM
same,MIC E. coli ATCC 25922,E. coli ATCC 25922,> 64 µM
same,MIC E. coli efflux del.,E. coli efflux del.,> 64 µM
same,melting point,,278 to 281 °C
"Cn1c(NC(=O)c2ccc(O)cc2O)nc2cc(C#N)ccc21 [Compound 35, N-(5-cyano-1-methyl-1H-benzo[d]imidazol-2-yl)-2,4-dihydroxybenzamide]",IC50,H460 (lung carcinoma),> 100 µM
same,IC50,[2],10 ± 1.6 µM
same,IC50,[3],8.7 ± 1.5 µM
same,IC50,[4],33.5 ± 6.5 µM
same,FRAP,[5],278.61 ± 3.28
same,IC50,[1],0.19 ± 0.04 mM
same,MIC S. aureus ATCC 29213,S. aureus ATCC 29213,> 64 µM
same,MIC A. baumannii ATCC 17978,A. baumannii ATCC 17978,> 64 µM
same,"Selectivity of antibacterial activity, in words",E. faecalis ATCC 29212,selective antibacterial activity
same,MIC E. faecalis ATCC 29212,E. faecalis ATCC 29212,16 µM
same,MIC P. aeruginosa ATCC 27853,P. aeruginosa ATCC 27853,> 64 µM
same,MIC E. coli ATCC 25922,E. coli ATCC 25922,> 64 µM
same,MIC E. coli efflux del.,E. coli efflux del.,64 µM
same,melting point,,273 to 275 °C
"CCCCCCn1c(NC(=O)c2cc(O)c(O)c(O)c2)nc2cc(C#N)ccc21 [Compound 37, N-(5-cyano-1-hexyl-1H-benzo[d]imidazol-2-yl)-3,4,5-trihydroxybenzamide]",IC50,H460 (lung carcinoma),47 ± 8.7 µM
same,IC50,[2],37.8 ± 6 µM
same,IC50,[3],38.2 ± 3.2 µM
same,IC50,[4],37.9 ± 0.4 µM
same,FRAP,[5],2780.81 ± 15.12
same,"FRAP ferric reducing/antioxidant power, in words",[5],excellent in vitro antioxidant activity
same,IC50,[1],0.002 ± 0.0001 mM
same,"ABTS antioxidative activity, in words",[1]; in comparison to the standard BHT,pronounced antioxidative activity
same,"DPPH free radical scavenging activity, in words",[6],significantly improved
same,MIC,"S. aureus ATCC 29213; Staphylococcus aureus, ATCC29213, read-out: MIC S. aureus",16 µM
same,MIC S. aureus ATCC 29213,S. aureus ATCC 29213,16 µM
same,MIC A. baumannii ATCC 17978,A. baumannii ATCC 17978,> 64 µM
same,MIC,"E. faecalis ATCC 29212; Enterococcus faecalis, ATCC29212, read-out: MIC E. faecalis",16 µM
same,"Selectivity of antibacterial activity, in words",E. faecalis ATCC 29212,selective antibacterial activity
same,MIC E. faecalis ATCC 29212,E. faecalis ATCC 29212,16 µM
same,MIC P. aeruginosa ATCC 27853,P. aeruginosa ATCC 27853,> 64 µM
same,MIC E. coli ATCC 25922,E. coli ATCC 25922,> 64 µM
same,MIC,"E. coli efflux del.; Escherichia coli, read-out: MIC E. coli efflux del.",16 µM
same,MIC E. coli efflux del.,E. coli efflux del.,16 µM
same,melting point,,290 to 294 °C
